The target of experiment [1] is T1, IRAK4 (Homo sapiens, UniProt Q9NWZ3).
T1 sequence (Q9NWZ3 1-460): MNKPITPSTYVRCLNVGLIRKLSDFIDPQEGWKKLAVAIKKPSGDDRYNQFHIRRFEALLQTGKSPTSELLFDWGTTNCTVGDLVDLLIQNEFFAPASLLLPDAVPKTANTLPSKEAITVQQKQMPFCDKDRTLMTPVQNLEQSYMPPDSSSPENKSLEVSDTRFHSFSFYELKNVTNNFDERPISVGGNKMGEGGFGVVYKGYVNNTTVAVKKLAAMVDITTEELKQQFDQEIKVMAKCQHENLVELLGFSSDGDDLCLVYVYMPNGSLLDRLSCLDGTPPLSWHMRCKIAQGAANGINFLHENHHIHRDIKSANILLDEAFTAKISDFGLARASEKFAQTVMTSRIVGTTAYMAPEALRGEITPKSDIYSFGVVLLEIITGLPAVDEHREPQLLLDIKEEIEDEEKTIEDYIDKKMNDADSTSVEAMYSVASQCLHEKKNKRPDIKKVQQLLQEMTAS
Briefly: IRAK4 PhosphoSens Biochemical Assay (BIOCHEM). The following applies: IRAK4 1 nM; ATP and Sox conjugated peptide substrate AQT0326; pH 7.5; room temperature; 240 minutes. The method, then: The PhosphoSens® biochemical assay was performed as described by the vendor (AssayQuant Technologies Inc. Marlborough, MA). A 1.25× stock solution of IRAK4 (PV4002, ThermoFisher Scientific, Waltham, MA) and a 5× stock solution of ATP and Sox conjugated peptide substrate, AQT0326 (CSKS-AQT0326B, AssayQuant Technologies), were prepared in 1× kinase reaction buffer consisting of 50 mM HEPES, pH 7.5, 0.01% Brij-35, 0.5 mM EGTA, 20 mM MgCl2 and 1 mM DTT. 10 μL of the ATP and substrate solution mix, for a final concentration of 200 µM ATP and […] peptide substrate, was added to a Corning 3574 384-well, white, non-binding surface microtiter plate containing 0.5 μL of serially diluted test compounds prepared in DMSO. The reactions were started with the addition of 40 μL of the enzyme solution, for a final IRAK4 concentration of 1 nM, and monitored every 71 seconds for 240 minutes at λEX 360/λEM 485 in a BioTek Synergy H4 plate reader (Agilent Technologies, Santa Clara, CA) at room temperature. The initial linear portions of the progress curves were fit according to a linear equation to yield the slopes and converted to % inhibition based on a value of 100% activity for the no inhibitor treated control. IC50 values of each compound were obtained by fitting the % inhibition-compound concentration curves using Dotmatics software (Dotmatics, Bishops Stortford, Hertfordshire, England),

Experiment [2] addresses T1, IRAK4. Briefly: ALE THP1 HTRF (IRAK4 HTRF in THP1 cell lysate, Cisbio HTRF kit). Type of experiment: cell-based. The arrangement: THP1 Homogeneous Time Resolved Fluorescence (ALE THP1 HTRF) Procedure; endogenous in cells; host or cells: THP1. The following applies: anti-IRAK4 d2 / anti-IRAK4 k antibodies. The method, then:
Cell culture media was prepared in a tissue culture hood in a sterile environment by adding 10% FBS and 1% Penicillin Streptomycin to 500 mL no phenol red RPMI 1640 media. The media was filtered through a Nalgene Bottle Top Filter and stored at 4° C.
For Homogenous Time Resolved Fluorescence (HTRF) assays, a Cisbio HTRF kit was used, which included: Lysis Buffer #1 4×, Blocking Reagent #3 100×, 20× Antibody 1 (Anti-IRAK4 d2), 20× Antibody 2 (Anti-IRAK4 k), and Detection Buffer.
4× Lysis Buffer was stored at 4° C. For use as 1× Lysis buffer, the 4× solution was diluted with de-ionized water (distilled water, Gibco Cat. #15230279) and 100× Blocking Reagent in a 1:3:0.04 volume ratio.
20× Antibody Solution aliquots were stored at −80° C. and the Detection Buffer was stored at 4° C. For use as a 1× Antibody Solution, the 20× Antibody Solution aliquot was diluted with Detection Buffer in a 1:19 volume ratio.
Cells were lysed at room temperature for 45 min with shaking. A BCA protein assay was performed and normalization was conducted to the desired total protein concentration with 1× lysis buffer. Next, 1× Antibody Solutions were prepared by adding 380 μL Detection Buffer to 20 μL 20× Antibody Solution aliquots and mixing well. 1× Antibody Solutions were combined 1:1 and briefly vortexed. For control wells, 20 μL 1× anti IRAK4-k Antibody Solution was saved. The 384-well plate (ProxiPlate-384 Plus, Perkin Elmer Cat. #6008289) was loaded by adding 4 μL of the mixed Antibody Solution to empty wells using a single channel repeater. Using a multi-channel repeater, 16 μL lysate was added per well, and any bubbles that were formed were popped with 20 μL pipette tips and Kimwipe edges. In column 10, triplicates of each control were prepared. In wells A10, B10, and C10, buffer control was prepared by adding 16 μL Lysis Buffer and 4 μL Detection Buffer. In wells D10, E10, and F10, cryptate control was prepared by adding 16 μL Lysis Buffer, 2 μL Detection Buffer, and 2 μL 1× anti-IRAK4-k Antibody Solution. In wells G10, H10, and 110, a negative control was prepared by adding 16 μL Lysis Buffer and 4 μL mixed Antibody Solution. The plate was sealed with a clear seal and covered with an aluminum lid. The plate was spun down at 800 g for 5 min and incubated in the dark at room temperature overnight. The next day, the plate was spun down at 800 g for 5 min. The samples were analyzed by a plate reader (Envision, PerkinElmer) using the Desnor 384 HTRF program.

Where a name gives a salt, the structure may show the parent alone. Bounds are passed on as bounds.

One may read the IC50 as the concentration needed to halve the response being measured. The EC50 is the concentration at which the effect is half-maximal. As for `N#Cc1nn(C2CCC(C(=O)N3CCN(c4ccc5c(c4)C(=O)N(C4CCC(=O)NC4=O)C5)CC3)CC2)cc1NC(=O)c1cnn2ccc(N3CCNCC3)nc12` (stereo not drawn) [Compound P-2], in experiment [1], the IC50 stood at 15.3 nM. Also, in experiment [2], the EC50 is greater than 10000 nM and the “ALE THP1 HTRF YMIN” value is on record as 63%.

For the compound `N#Cc1nn([C@H]2CC[C@H](CN3CCN(c4ccc5c(c4)C(=O)N(C4CCC(=O)NC4=O)C5=O)CC3)CC2)cc1NC(=O)c1cnn2ccc(N3CCNCC3)nc12` (stereo partly drawn) [Compound P-6, N-[3-Cyano-1-[4-[[4-[2-(2,6-dioxo-3-piperidyl)-1,3-dioxo-isoindolin-5-yl]piperazin-1-yl]methyl]cyclohexyl]pyrazol-4-yl]-5-piperazin-1-yl-pyrazolo[1,5-a]pyrimidine-3-carboxamide dihydrochloride], the IC50 in experiment [1] stood at 8.1 nM. In experiment [2], a half-maximal effect (EC50) was put at 2820 nM and the “ALE THP1 HTRF YMIN” value was 26%.

For the compound `N[C@@H]1C[C@@H](F)CN(c2ccn3ncc(C(=O)Nc4cn([C@H]5CC[C@H](C(=O)NC6CCN(c7ccc8c(c7)C(=O)N(C7CCC(=O)NC7=O)C8=O)CC6)CC5)nc4C(F)(F)F)c3n2)C1` (stereo partly drawn) [Compound P-20], the IC50 in experiment [1] was less than 0.5 nM. Moreover, in experiment [2], the EC50 is 11 nM and the “ALE THP1 HTRF YMIN” value is 22%.

For the compound `Cc1nn([C@H]2CC[C@H](C(=O)NC3CCN(c4ccc5c(c4)C(=O)N(C4CCC(=O)NC4=O)C5=O)CC3)CC2)cc1NC(=O)c1cnn2ccc(N3C[C@H](N)C[C@@H](F)C3)nc12` (stereo partly drawn) [Compound P-27, N-[1-[4-[[1-[2-(2,6-dioxo-3-piperidyl)-1,3-dioxo-isoindolin-5-yl]-4-piperidyl]carbamoyl]cyclohexyl]-3-methyl-pyrazol-4-yl]-5-[(3R,5R)-3-amino-5-fluoro-1-piperidyl]pyrazolo[1,5-a]pyrimidine-3-carboxamide hydroxhloride], the IC50 in experiment [1] was less than 0.5 nM. Besides, in experiment [2], the EC50 was 26 nM and the “ALE THP1 HTRF YMIN” value turned out to be 24%.

For `N#Cc1nn(C2CCC(C(=O)N3CCN(c4ccc5c(c4)C(=O)N(C4CCC(=O)NC4=O)C5=O)CC3)CC2)cc1NC(=O)c1cnn2ccc(N[C@@H]3CCCC[C@@H]3N)nc12` (stereo partly drawn) [Compound P-7], in experiment [1], the IC50 is less than 0.5 nM. Also, in experiment [2], the EC50 is greater than 10000 nM and the “ALE THP1 HTRF YMIN” value was 74%.

`N[C@@H]1C[C@@H](F)CN(c2ccn3ncc(C(=O)Nc4cn([C@H]5CC[C@H](CCN6CCN(c7ccc8c(c7)CN(C7CCC(=O)NC7=O)C8=O)CC6)CC5)nc4C(F)F)c3n2)C1` (stereo partly drawn) [Compound P-30, N-[3-(Difluoromethyl)-1-[4-[2-[4-[2-(2,6-dioxo-3-piperidyl)-1-oxo-isoindolin-5-yl]piperazin-1-yl]ethyl]cyclohexyl]pyrazol-4-yl]-5-[(3R,5R)-3-amino-5-fluoro-1-piperidyl]pyrazolo[1,5-a]pyrimidine-3-carboxamide dihydrochloride]: the IC50 in experiment [1] was less than 0.5 nM. Further, in experiment [2], the EC50 was 8 nM and the “ALE THP1 HTRF YMIN” value was determined as 10%.

Turning to `C[C@@H]1CN(c2ccn3ncc(C(=O)Nc4cn([C@H]5CC[C@H](C(=O)NC6CCN(c7ccc8c(c7)CN(C7CCC(=O)NC7=O)C8=O)CC6)CC5)nc4C(F)F)c3n2)C[C@H](C)O1` (stereo partly drawn) [Compound P-33], the IC50 in experiment [1] came to 9.4 nM. In experiment [2], the EC50 stood at 24 nM and the “ALE THP1 HTRF YMIN” value was determined as 68%.

As for `O=C1CCC(N2Cc3cc(N4CCC(NC(=O)[C@H]5CC[C@H](n6cc(NC(=O)c7cnn8ccc(N9CCOCC9)nc78)c(C(F)F)n6)CC5)CC4)ccc3C2=O)C(=O)N1` (stereo partly drawn) [Compound P-31, N-[3-(difluoromethyl)-1-[4-[[1-[2-(2,6-dioxo-3-piperidyl)-1-oxo-isoindolin-5-yl]-4-piperidyl]carbamoyl]cyclohexyl]pyrazol-4-yl]-5-morpholino-pyrazolo[1,5-a]pyrimidine-3-carboxamide], the IC50 in experiment [1] was less than 0.5 nM. In experiment [2], the EC50 turned out to be 7 nM and the “ALE THP1 HTRF YMIN” value was found to be 27%.

Take `N#Cc1nn([C@H]2CC[C@H](C(=O)NC3CCN(c4ccc5c(c4)C(=O)N(C4CCC(=O)NC4=O)C5=O)CC3)CC2)cc1NC(=O)c1cnn2ccc(N3C[C@H](N)C[C@@H](F)C3)nc12` (stereo partly drawn) [Compound P-23]: the IC50 in experiment [1] was less than 0.5 nM. In addition, in experiment [2], a half-maximal effect (EC50) was put at 8 nM and the “ALE THP1 HTRF YMIN” value was 20%.

Consider `CN(C[C@H]1CC[C@H](n2cc(NC(=O)c3cnn4ccc(N5CCOCC5)nc34)c(C(F)F)n2)CC1)[C@H]1CC[C@H](Nc2cccc3c2C(=O)N(C2CCC(=O)NC2=O)C3=O)CC1` (stereo partly drawn) [Compound P-36], for which, in experiment [1], the IC50 came to 0.9 nM. For the same compound, in experiment [2], the EC50 came out at 9 nM and the “ALE THP1 HTRF YMIN” value came to 29%.

Turning to `N[C@@H]1C[C@@H](F)CN(c2ccn3ncc(C(=O)Nc4cn([C@H]5CC[C@H](CN6CCN(c7ccc8c(c7)C(=O)N(C7CCC(=O)NC7=O)C8=O)CC6)CC5)nc4C(F)F)c3n2)C1` (stereo partly drawn) [Compound P-26], the IC50 in experiment [1] is less than 0.5 nM. In addition, in experiment [2], the response was half-maximal at 6 nM (EC50) and the “ALE THP1 HTRF YMIN” value came to 29%.

Regarding `N[C@@H]1C[C@@H](F)CN(c2ccn3ncc(C(=O)Nc4cn([C@H]5CC[C@H](C(=O)N6CCN(c7ccc8c(c7)C(=O)N(C7CCC(=O)NC7=O)C8=O)CC6)CC5)nc4C(F)(F)F)c3n2)C1` (stereo partly drawn) [Compound P-13, 5-[(3R,5R)-3-Amino-5-fluoro-1-piperidyl]-N-[1-[4-[4-[2-(2,6-dioxo-3-piperidyl)-1,3-dioxo-isoindolin-5-yl]piperazine-1-carbonyl]cyclohexyl]-3-(trifluoromethyl)pyrazol-4-yl]pyrazolo[1,5-a]pyrimidine-3-carboxamide], the IC50 in experiment [1] was less than 0.5 nM. In experiment [2], the EC50 is 8 nM and the “ALE THP1 HTRF YMIN” value was 24%.

Turning to `O=C1CCC(N2C(=O)c3ccc(N4CCN(C(=O)[C@H]5CC[C@H](n6cc(NC(=O)c7cnn8ccc(N9CCNCC9)nc78)c(C(F)(F)F)n6)CC5)CC4)cc3C2=O)C(=O)N1` (stereo partly drawn) [Compound P-14], in experiment [1], the IC50 was 1.6 nM. Moreover, in experiment [2], the EC50 worked out at 10000 nM and the “ALE THP1 HTRF YMIN” value was determined as 73%.

`O=C1CCC(N2C(=O)c3ccc(N4CCN(C(=O)C5CCC(n6cc(NC(=O)c7cnn8ccc(N9CCNCC9)nc78)c(C(F)F)n6)CC5)CC4)cc3C2=O)C(=O)N1` (stereo not drawn) [Compound P-16]: in experiment [1], the IC50 was found to be 0.5 nM. Besides, in experiment [2], it took 13 nM to reach a half-maximal effect (EC50) and the “ALE THP1 HTRF YMIN” value is recorded as 41%.

As for `N#Cc1nn([C@H]2CC[C@H](C(=O)N3CCN(c4ccc5c(c4)C(=O)N(C4CCC(=O)NC4=O)C5=O)CC3)CC2)cc1NC(=O)c1cnn2ccc(N3CCC[C@@H](O)C3)nc12` (stereo partly drawn) [Compound P-11], the IC50 in experiment [1] is 0.5 nM. For the same compound, in experiment [2], the EC50 was greater than 10000 nM and the “ALE THP1 HTRF YMIN” value stood at 74%.

Values taken from US20260327233A1, “Heteroaryl Compounds as Ligand Directed Degraders of IRAK4” (Celgene Corporation, priority 2023, published 2026).
